The text below walks through data of PubChem BioAssay AID330 (DTP/NCI, 2004).

“And” between values parts separate entries of the source, which are not always exact repeats. Equal values may be shown once. Inconclusive results and toxic doses are left out.

In the experiment the test system is P388 leukemia ip, CD2F1 mice, survival T/C. The experiment in a line: NCI In Vivo Anticancer Drug Screen. Data for tumor model P388 Leukemia (intraperitoneal) in CD2F1 (CDF1) mice. Particulars: endpoint: median survival time, higher = longer survival. The procedure, abridged:
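Mice carrying the transplanted tumor received test compound or vehicle. Survival was recorded in each group, and the value is the treated-group measurement divided by that of the vehicle-treated control group.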

Setting [1] is: dose: 3.0 mg/kg/injection, schedule: Q01DX009 (ip), vehicle: saline with Tween-80.
Setting [2] is: dose: 100.0 mg/kg/injection, schedule: Q01DX001 (ip), vehicle: Klucel (hydroxypropylcellulose) (HPC).
[3] abbreviates: dose: 200.0 mg/kg/injection, schedule: Q01DX001 (ip), vehicle: Klucel (hydroxypropylcellulose) (HPC).
The mark [4] stands for this setting: dose: 400.0 mg/kg/injection, schedule: Q01DX001 (ip), vehicle: Klucel (hydroxypropylcellulose) (HPC).
Setting [5] is: dose: 50.0 mg/kg/injection, schedule: Q01DX005 (ip), vehicle: Klucel (hydroxypropylcellulose) (HPC).
The mark [6] stands for this setting: dose: 100.0 mg/kg/injection, schedule: Q01DX005 (ip), vehicle: Klucel (hydroxypropylcellulose) (HPC).
Setting [7] is: dose: 200.0 mg/kg/injection, schedule: Q01DX005 (ip), vehicle: Klucel (hydroxypropylcellulose) (HPC).
The mark [8] stands for this setting: dose: 6.25 mg/kg/injection, schedule: Q01DX009 (ip), vehicle: saline with Tween-80.
Where [9] appears, read: dose: 12.5 mg/kg/injection, schedule: Q01DX009 (ip), vehicle: saline with Tween-80.
The mark [10] stands for this setting: dose: 25.0 mg/kg/injection, schedule: Q01DX009 (ip), vehicle: saline with Tween-80.
Where [11] appears, read: dose: 200.0 mg/kg/injection, schedule: Q01DX009 (ip), vehicle: saline with Tween-80.
The mark [12] stands for this setting: dose: 50.0 mg/kg/injection, schedule: Q01DX009 (ip), vehicle: saline with Tween-80.
The mark [13] stands for this setting: dose: 100.0 mg/kg/injection, schedule: Q01DX009 (ip), vehicle: saline with Tween-80.

Consider `O=c1[nH]cc(N(CCCl)CCCl)c(=O)[nH]1`, for which the T/C (dose: 0.05 mg/kg/injection, schedule: Q01DX009 (ip), vehicle: saline with Tween-80) was 109 % of control; the T/C (dose: 0.08 mg/kg/injection, schedule: Q01DX009 (ip), vehicle: saline with Tween-80) was 109 % of control; the T/C (dose: 0.39 mg/kg/injection, schedule: Q01DX009 (ip), vehicle: saline with Tween-80) is 181 % of control; the T/C (dose: 0.65 mg/kg/injection, schedule: Q01DX009 (ip), vehicle: saline with Tween-80) was 181 % of control; the T/C (dose: 1.1 mg/kg/injection, schedule: Q01DX009 (ip), vehicle: saline with Tween-80) was 236 % of control; the T/C (dose: 1.8 mg/kg/injection, schedule: Q01DX009 (ip), vehicle: saline with Tween-80) is 227 % of control. Moreover, the T/C under setting [1] was 118 % of control.

As to `CNC(=O)OCCC(OC(=O)NC)C1CCC2C3CCC4CC(OC(=O)NC)CCC4(C)C3CCC12C` (stereo unspecified), the T/C was 108 % of control under setting [2], 108 % of control under setting [3] and 101 % of control under setting [4].

On to `O=c1c(Br)cn(Cc2ccccc2)cc1Br`, for which the T/C (dose: 50.0 mg/kg/injection, schedule: Q01DX005 (ip), vehicle: saline) is 92 % of control; the T/C (dose: 100.0 mg/kg/injection, schedule: Q01DX005 (ip), vehicle: saline) was 95 % of control; the T/C (dose: 200.0 mg/kg/injection, schedule: Q01DX005 (ip), vehicle: saline) is 90 % of control.

`CCOC(=O)/C(C#N)=C/NCCc1c[nH]c2ccccc12`: the T/C is 102 % of control under setting [5], 103 % of control under setting [6] and 94 % of control under setting [7].

`O=C1Nc2cnc(Cl)nc2Nc2cc(Cl)ccc21`: the T/C under setting [5] was 95 % of control, the T/C under setting [6] was 95 % of control and the T/C under setting [7] was 92 % of control.

For `O=c1[nH]c(=O)c2ncsc2[nH]1`, the T/C is 100 % of control (dose: 25.0 mg/kg/injection, schedule: Q01DX001 (ip), vehicle: saline with Tween-80); 100 % of control and 104 % of control (dose: 50.0 mg/kg/injection, schedule: Q01DX001 (ip), vehicle: saline with Tween-80); 100 % of control and 113 % of control (dose: 100.0 mg/kg/injection, schedule: Q01DX001 (ip), vehicle: saline with Tween-80); 118 % of control (dose: 200.0 mg/kg/injection, schedule: Q01DX001 (ip), vehicle: saline with Tween-80).

On to `COc1ccc(Cn2nnc(C(N)=O)c2Cl)cc1`, for which the T/C reads like this: under setting [2], 99 % of control; under setting [3], 99 % of control; under setting [4], 89 % of control.

For the molecule `CNc1c(C(N)=O)nnn1Cc1ccc(OC)cc1`, the T/C is, setting by setting: (dose: 100.0 mg/kg/injection, schedule: Q04DX002 (ip), vehicle: Klucel (hydroxypropylcellulose) (HPC)) 100 % of control; (dose: 200.0 mg/kg/injection, schedule: Q04DX002 (ip), vehicle: Klucel (hydroxypropylcellulose) (HPC)) 100 % of control; (dose: 400.0 mg/kg/injection, schedule: Q04DX002 (ip), vehicle: Klucel (hydroxypropylcellulose) (HPC)) 103 % of control.

With `N#Cc1nc2c(nc1N)CCCCCCCCCC2`, the T/C was 94 % of control (dose: 25.0 mg/kg/injection, schedule: Q01DX009 (ip), vehicle: Klucel (hydroxypropylcellulose) (HPC)); 94 % of control (dose: 50.0 mg/kg/injection, schedule: Q01DX009 (ip), vehicle: Klucel (hydroxypropylcellulose) (HPC)); 92 % of control (dose: 100.0 mg/kg/injection, schedule: Q01DX009 (ip), vehicle: Klucel (hydroxypropylcellulose) (HPC)); 100 % of control (dose: 200.0 mg/kg/injection, schedule: Q01DX009 (ip), vehicle: Klucel (hydroxypropylcellulose) (HPC)).

`CC(C)CC(CC(C)C)[N+](=O)[O-]`: the T/C was 111 % of control (dose: 50.0 mg/kg/injection, schedule: Q01DX005 (ip), vehicle: saline with Tween-80); 105 % of control (dose: 100.0 mg/kg/injection, schedule: Q01DX005 (ip), vehicle: saline with Tween-80); 107 % of control (dose: 200.0 mg/kg/injection, schedule: Q01DX005 (ip), vehicle: saline with Tween-80).

Turning to `CC1=NN(C(=O)c2ccccc2)C(=O)C1N=Nc1ccc(C(=O)O)cc1` (stereo unspecified), the T/C by setting is: (dose: 25.0 mg/kg/injection, schedule: Q01DX005 (ip), vehicle: Klucel (hydroxypropylcellulose) (HPC)) 110 % of control; under setting [5], 95 % of control; under setting [6], 104 % of control; under setting [7], 99 % of control.

For `C#Cc1cccc(N=Cc2ccc(C=Nc3cccc(C#C)c3)cc2)c1`, the T/C under setting [8] is 104 % of control, the T/C under setting [9] is 112 % of control, the T/C under setting [10] was 86 % of control and the T/C under setting [11] was 88 % of control.

In the case of `Cc1ccc(N)c(C(O)(C(F)(F)F)C(F)(F)F)c1`, the T/C is 99 % of control under setting [12] and 101 % of control under setting [13].

`CC([NH-])C(=O)O.[Cl][Pt][Cl]` (stereo unspecified): the T/C is, setting by setting: (dose: 12.5 mg/kg/injection, schedule: Q01DX009 (ip), vehicle: saline) 106 % of control; (dose: 25.0 mg/kg/injection, schedule: Q01DX009 (ip), vehicle: distilled water + Tween-80) 154 % of control; (dose: 25.0 mg/kg/injection, schedule: Q01DX009 (ip), vehicle: saline) 113 % of control; (dose: 50.0 mg/kg/injection, schedule: Q01DX009 (ip), vehicle: saline) 123 % of control; (dose: 100.0 mg/kg/injection, schedule: Q01DX009 (ip), vehicle: saline) 123 % of control.

Turning to `CC12CCC3C(CCC4(O)C=CCCC34C=O)C1(O)CC(O)C2c1ccc(=O)oc1` (stereo unspecified), the T/C under setting [10] is 97 % of control, the T/C under setting [12] was 91 % of control, the T/C under setting [13] was 91 % of control and the T/C under setting [11] is 91 % of control.

In the case of `COc1cc(C2c3cc4c(cc3[C@@H](OC3OC(COC(C)=O)C(OC(C)=O)C(OC(C)=O)C3OC(C)=O)[C@H]3COC(=O)[C@H]23)OCO4)cc(OC)c1OC` (stereo partly specified), the T/C is 107 % of control (dose: 4.0 mg/kg/injection, schedule: Q01DX005 (ip), vehicle: saline); 113 % of control (dose: 8.0 mg/kg/injection, schedule: Q01DX005 (ip), vehicle: saline); 105 % of control (dose: 16.0 mg/kg/injection, schedule: Q01DX005 (ip), vehicle: saline); 98 % of control and 105 % of control (dose: 32.0 mg/kg/injection, schedule: Q01DX005 (ip), vehicle: saline); 100 % of control (dose: 64.0 mg/kg/injection, schedule: Q01DX005 (ip), vehicle: saline); 100 % of control (dose: 128.0 mg/kg/injection, schedule: Q01DX005 (ip), vehicle: saline).

Take `NC(=O)/C=C/C(=O)c1c(Cl)cccc1Cl`: the T/C was 113 % of control (dose: 1.56 mg/kg/injection, schedule: Q01DX009 (ip), vehicle: saline with Tween-80); 111 % of control (dose: 3.13 mg/kg/injection, schedule: Q01DX009 (ip), vehicle: saline with Tween-80); 94 % of control under setting [8]; 86 % of control and 87 % of control under setting [9].

With `CCC(CC)OCCN1CCN(CCCN2c3ccccc3Sc3ccc(C(F)(F)F)cc32)CC1`, the T/C is, setting by setting: (dose: 0.75 mg/kg/injection, schedule: Q01DX009 (ip), vehicle: saline with Tween-80) 110 % of control; (dose: 1.5 mg/kg/injection, schedule: Q01DX009 (ip), vehicle: saline with Tween-80) 94 % of control; (dose: 2.5 mg/kg/injection, schedule: Q04DX003 (ip), vehicle: saline) 110 % of control and 93 % of control; under setting [1], 99 % of control; (dose: 5.0 mg/kg/injection, schedule: Q04DX003 (ip), vehicle: saline) 101 % of control and 97 % of control; (dose: 6.0 mg/kg/injection, schedule: Q01DX009 (ip), vehicle: saline with Tween-80) 100 % of control. For the same molecule, the T/C reads like this: (dose: 10.0 mg/kg/injection, schedule: Q04DX003 (ip), vehicle: saline with Tween-80) 99 % of control and 122 % of control; (dose: 10.0 mg/kg/injection, schedule: Q04DX003 (ip), vehicle: saline) 109 % of control and 96 % of control; (dose: 12.0 mg/kg/injection, schedule: Q01DX009 (ip), vehicle: saline with Tween-80) 110 % of control; (dose: 20.0 mg/kg/injection, schedule: Q04DX003 (ip), vehicle: saline with Tween-80) 109 % of control and 119 % of control; (dose: 20.0 mg/kg/injection, schedule: Q04DX003 (ip), vehicle: saline) 113 % of control and 98 % of control.
